Experimental data as given in the NIST ThermoML archive (doi:10.1021/je700339f).
Numbers after ± are expanded uncertainties.

Experiment: xn = mol fraction of the nth substance listed
Conditions: 298 K, Liquid

ClCCCl [1,2-dichloroethane] + CC(=O)N(C)C
mass density [kg/m3]
Conditions	x2 = 0.0977	x2 = 0.2003	x2 = 0.2988	x2 = 0.4022	x2 = 0.4999	x2 = 0.6007	x2 = 0.7008	x2 = 0.7988	x2 = 0.8997
100 kPa	1210 ± 7.2	1174.4 ± 7.1	1141.3 ± 6.9	1107.9 ± 6.7	1077.4 ± 6.5	1047.1 ± 6.2	1018.1 ± 6.1	990.5 ± 5.9	963.2 ± 5.8
500 kPa	1210.4 ± 7.2	1174.8 ± 7.1	1141.6 ± 6.9	1108.2 ± 6.7	1077.7 ± 6.5	1047.4 ± 6.2	1018.4 ± 6.1	990.8 ± 5.9	963.4 ± 5.8
1000 kPa	1210.9 ± 7.3	1175.2 ± 7.1	1142.1 ± 6.9	1108.7 ± 6.7	1078 ± 6.5	1047.7 ± 6.2	1018.7 ± 6.1	991.1 ± 5.9	963.8 ± 5.8
1500 kPa	1211.3 ± 7.3	1175.6 ± 7.1	1142.5 ± 6.9	1109 ± 6.7	1078.4 ± 6.5	1048.1 ± 6.2	1019.1 ± 6.1	991.4 ± 5.9	964.1 ± 5.8
2000 kPa	1211.8 ± 7.3	1176 ± 7.2	1142.9 ± 6.9	1109.5 ± 6.7	1078.8 ± 6.5	1048.4 ± 6.3	1019.4 ± 6.1	991.8 ± 5.9	964.4 ± 5.8
2500 kPa	1212.2 ± 7.3	1176.5 ± 7.2	1143.3 ± 6.9	1109.9 ± 6.7	1079.2 ± 6.5	1048.8 ± 6.3	1019.8 ± 6.1	992 ± 5.9	964.7 ± 5.8
3000 kPa	1212.6 ± 7.3	1176.9 ± 7.1	1143.8 ± 6.9	1110.2 ± 6.7	1079.6 ± 6.5	1049.1 ± 6.3	1020.1 ± 6.1	992.4 ± 5.9	965 ± 5.8
3500 kPa	1213.2 ± 7.3	1177.3 ± 7.2	1144.1 ± 6.9	1110.6 ± 6.7	1080 ± 6.5	1049.5 ± 6.3	1020.5 ± 6.1	992.7 ± 5.9	965.3 ± 5.8
4000 kPa	1213.6 ± 7.3	1177.7 ± 7.2	1144.6 ± 6.9	1111 ± 6.7	1080.4 ± 6.5	1049.8 ± 6.3	1020.9 ± 6.1	993.1 ± 5.9	965.6 ± 5.8
4500 kPa	1214 ± 7.3	1178.2 ± 7.2	1144.8 ± 6.9	1111.5 ± 6.7	1080.8 ± 6.5	1050.1 ± 6.3	1021.1 ± 6.1	993.4 ± 5.9	965.9 ± 5.8
5000 kPa	1214.5 ± 7.3	1178.6 ± 7.2	1145.4 ± 6.9	1111.8 ± 6.7	1081.1 ± 6.5	1050.5 ± 6.3	1021.5 ± 6.1	993.7 ± 5.9	966.2 ± 5.8
5500 kPa	1215 ± 7.3	1179 ± 7.2	1145.8 ± 6.9	1112.2 ± 6.7	1081.5 ± 6.5	1050.8 ± 6.3	1021.8 ± 6.1	994 ± 5.9	966.5 ± 5.8
6000 kPa	1215.4 ± 7.3	1179.5 ± 7.2	1146.1 ± 6.9	1112.6 ± 6.7	1081.8 ± 6.5	1051.2 ± 6.3	1022.1 ± 6.1	994.3 ± 5.9	966.9 ± 5.8
6500 kPa	1215.9 ± 7.3	1179.9 ± 7.2	1146.6 ± 6.9	1113 ± 6.7	1082.2 ± 6.5	1051.6 ± 6.3	1022.5 ± 6.1	994.7 ± 5.9	967.2 ± 5.8
7000 kPa	1216.3 ± 7.3	1180.3 ± 7.2	1147 ± 6.9	1113.4 ± 6.7	1082.6 ± 6.5	1052 ± 6.3	1022.8 ± 6.1	995 ± 5.9	967.5 ± 5.8
7500 kPa	1216.7 ± 7.3	1180.7 ± 7.2	1147.4 ± 6.9	1113.8 ± 6.7	1083 ± 6.5	1052.3 ± 6.3	1023.1 ± 6.1	995.3 ± 5.9	967.8 ± 5.8
8000 kPa	1217.2 ± 7.3	1181.2 ± 7.2	1147.8 ± 7	1114.1 ± 6.7	1083.3 ± 6.5	1052.7 ± 6.3	1023.5 ± 6.1	995.6 ± 5.9	968.1 ± 5.8
8500 kPa	1217.7 ± 7.4	1181.5 ± 7.2	1148.2 ± 7	1114.5 ± 6.7	1083.7 ± 6.5	1053 ± 6.3	1023.8 ± 6.1	996 ± 5.9	968.4 ± 5.8
9000 kPa	1218.1 ± 7.4	1182 ± 7.2	1148.6 ± 7	1114.9 ± 6.8	1084 ± 6.5	1053.4 ± 6.3	1024.2 ± 6.1	996.3 ± 5.9	968.8 ± 5.8
9500 kPa	1218.5 ± 7.4	1182.4 ± 7.2	1149 ± 7	1115.3 ± 6.8	1084.4 ± 6.5	1053.8 ± 6.3	1024.4 ± 6.1	996.6 ± 5.9	969 ± 5.8
10000 kPa	1219 ± 7.4	1182.9 ± 7.2	1149.5 ± 7	1115.7 ± 6.8	1084.8 ± 6.5	1054.2 ± 6.3	1024.8 ± 6.1	996.9 ± 5.9	969.4 ± 5.8
10500 kPa	1219.4 ± 7.4	1183.3 ± 7.2	1149.8 ± 7	1116.1 ± 6.8	1085.2 ± 6.5	1054.5 ± 6.3	1025.2 ± 6.1	997.2 ± 5.9	969.6 ± 5.8
11000 kPa	1219.9 ± 7.4	1183.7 ± 7.2	1150.3 ± 7	1116.5 ± 6.8	1085.6 ± 6.5	1054.8 ± 6.3	1025.5 ± 6.1	997.6 ± 5.9	970 ± 5.8
11500 kPa	1220.3 ± 7.4	1184.2 ± 7.2	1150.7 ± 7	1116.9 ± 6.8	1085.9 ± 6.5	1055.2 ± 6.3	1025.8 ± 6.1	997.9 ± 5.9	970.3 ± 5.8
11900 kPa	–	–	–	–	1086.2 ± 6.5	–	–	–	–
12000 kPa	1220.8 ± 7.4	1184.6 ± 7.3	1151.1 ± 7	1117.2 ± 6.8	–	1055.5 ± 6.3	1026.1 ± 6.1	998.2 ± 5.9	970.6 ± 5.8
12500 kPa	1221.2 ± 7.4	1185 ± 7.3	1151.5 ± 7	1117.6 ± 6.8	1086.6 ± 6.6	1055.8 ± 6.3	1026.5 ± 6.1	998.5 ± 5.9	970.9 ± 5.8
13000 kPa	1221.6 ± 7.4	1185.4 ± 7.3	1151.9 ± 7	1118 ± 6.8	1087 ± 6.6	1056.2 ± 6.3	1026.8 ± 6.1	998.8 ± 5.9	971.2 ± 5.8
13500 kPa	1222 ± 7.4	1185.8 ± 7.3	1152.2 ± 7	1118.4 ± 6.8	1087.3 ± 6.6	1056.5 ± 6.3	1027.1 ± 6.1	999.2 ± 5.9	971.5 ± 5.9
14000 kPa	1222.4 ± 7.4	1186.3 ± 7.3	1152.6 ± 7	1118.7 ± 6.8	1087.7 ± 6.6	1056.8 ± 6.3	1027.4 ± 6.1	999.4 ± 6	971.7 ± 5.8
14500 kPa	1222.9 ± 7.4	1186.7 ± 7.3	1153 ± 7	1119.1 ± 6.8	1088 ± 6.6	1057.1 ± 6.3	1027.8 ± 6.1	999.7 ± 6	972 ± 5.9
14900 kPa	1223.2 ± 7.4	–	–	–	–	–	–	–	–
15000 kPa	–	1187.1 ± 7.3	1153.4 ± 7	1119.4 ± 6.8	1088.4 ± 6.6	1057.5 ± 6.4	1028 ± 6.2	1000 ± 6	972.3 ± 5.9
15500 kPa	1223.7 ± 7.4	1187.4 ± 7.3	1153.8 ± 7	1119.8 ± 6.8	1088.7 ± 6.6	1057.8 ± 6.3	1028.4 ± 6.1	1000.4 ± 6	972.6 ± 5.9
15900 kPa	–	–	–	1120.1 ± 6.8	–	–	–	–	–
16000 kPa	1224.1 ± 7.4	1187.8 ± 7.3	1154.2 ± 7	–	1089.1 ± 6.6	1058.1 ± 6.4	1028.7 ± 6.2	1000.6 ± 6	972.9 ± 5.9
16400 kPa	1224.5 ± 7.4	–	–	–	–	–	–	–	–
16500 kPa	–	1188.2 ± 7.3	1154.6 ± 7	1120.5 ± 6.8	1089.4 ± 6.6	1058.4 ± 6.4	1029 ± 6.1	1001 ± 6	973.2 ± 5.9
16900 kPa	–	–	–	–	–	–	1029.3 ± 6.2	–	–
17000 kPa	1224.9 ± 7.4	1188.6 ± 7.3	1155 ± 7	1120.9 ± 6.8	1089.8 ± 6.6	1058.8 ± 6.4	–	1001.3 ± 6	973.4 ± 5.9
17500 kPa	1225.4 ± 7.4	1189.2 ± 7.3	1155.3 ± 7.1	1121.3 ± 6.8	1090.1 ± 6.6	1059.2 ± 6.4	1029.7 ± 6.2	1001.5 ± 6	973.7 ± 5.9
17900 kPa	–	–	–	1121.5 ± 6.8	–	–	–	–	–
18000 kPa	1225.8 ± 7.4	1189.5 ± 7.3	1155.7 ± 7.1	–	1090.4 ± 6.6	1059.5 ± 6.4	1029.9 ± 6.2	1001.8 ± 6	974 ± 5.9
18500 kPa	1226.1 ± 7.4	1189.8 ± 7.3	1156.1 ± 7.1	1122 ± 6.8	1090.8 ± 6.6	1059.8 ± 6.4	1030.2 ± 6.2	1002.1 ± 6	974.3 ± 5.9
19000 kPa	1226.6 ± 7.4	1190.3 ± 7.3	1156.5 ± 7.1	1122.4 ± 6.8	1091.2 ± 6.6	1060.2 ± 6.4	1030.6 ± 6.2	1002.5 ± 6	974.7 ± 5.9
19500 kPa	1227 ± 7.5	1190.6 ± 7.3	1156.8 ± 7.1	1122.7 ± 6.8	1091.5 ± 6.6	1060.5 ± 6.4	1030.9 ± 6.2	1002.7 ± 6	975 ± 5.9
20000 kPa	1227.5 ± 7.5	–	1157.2 ± 7.1	1123.1 ± 6.8	1091.9 ± 6.6	1060.8 ± 6.4	1031.2 ± 6.2	1003 ± 6	–
20100 kPa	–	1191.1 ± 7.3	–	–	–	–	–	–	975.4 ± 5.8
